{"source": "patent US20230108049A1", "about": "“ORAL FAST-DISPERSING DOSAGE FORM OF RIMEGEPANT” (BIOHAVEN PHARMACEUTICAL HOLDING COMPANY LTD., priority 2020, published 2023)", "key": {"OATP1B3": {"target": "OATP1B3 (Homo sapiens, UniProt Q9NPD5)", "sequence (Q9NPD5 whole entry)": "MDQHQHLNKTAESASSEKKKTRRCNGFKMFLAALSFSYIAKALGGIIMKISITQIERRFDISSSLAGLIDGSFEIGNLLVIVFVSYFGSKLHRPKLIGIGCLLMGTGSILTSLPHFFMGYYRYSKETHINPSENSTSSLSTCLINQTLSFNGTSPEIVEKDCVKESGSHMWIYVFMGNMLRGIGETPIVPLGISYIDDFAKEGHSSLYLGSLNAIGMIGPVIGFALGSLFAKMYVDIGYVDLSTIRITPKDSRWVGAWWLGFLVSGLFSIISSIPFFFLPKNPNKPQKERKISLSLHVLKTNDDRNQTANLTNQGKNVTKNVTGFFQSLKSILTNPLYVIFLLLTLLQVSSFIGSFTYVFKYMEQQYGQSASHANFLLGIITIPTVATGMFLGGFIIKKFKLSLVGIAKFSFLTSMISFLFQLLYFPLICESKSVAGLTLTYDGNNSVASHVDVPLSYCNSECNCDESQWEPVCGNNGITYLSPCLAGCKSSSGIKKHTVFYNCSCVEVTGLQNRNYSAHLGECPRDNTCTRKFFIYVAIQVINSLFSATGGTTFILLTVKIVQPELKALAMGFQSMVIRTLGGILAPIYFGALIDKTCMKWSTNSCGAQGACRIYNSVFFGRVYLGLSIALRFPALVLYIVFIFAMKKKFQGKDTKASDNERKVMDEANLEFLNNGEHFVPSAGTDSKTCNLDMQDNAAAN", "test": "In vitro transporter inhibition", "assay_type": "in vitro ADME", "source_text": "(§1) Rimegepant is an inhibitor of OATP1B3, OCT2, and MATE1. No clinical drug interactions are expected for NURTEC ODT with these transporters at clinically relevant concentrations."}, "OAT3": {"target": "OAT3 (Homo sapiens, UniProt Q8TCC7)", "sequence (Q8TCC7 whole entry)": "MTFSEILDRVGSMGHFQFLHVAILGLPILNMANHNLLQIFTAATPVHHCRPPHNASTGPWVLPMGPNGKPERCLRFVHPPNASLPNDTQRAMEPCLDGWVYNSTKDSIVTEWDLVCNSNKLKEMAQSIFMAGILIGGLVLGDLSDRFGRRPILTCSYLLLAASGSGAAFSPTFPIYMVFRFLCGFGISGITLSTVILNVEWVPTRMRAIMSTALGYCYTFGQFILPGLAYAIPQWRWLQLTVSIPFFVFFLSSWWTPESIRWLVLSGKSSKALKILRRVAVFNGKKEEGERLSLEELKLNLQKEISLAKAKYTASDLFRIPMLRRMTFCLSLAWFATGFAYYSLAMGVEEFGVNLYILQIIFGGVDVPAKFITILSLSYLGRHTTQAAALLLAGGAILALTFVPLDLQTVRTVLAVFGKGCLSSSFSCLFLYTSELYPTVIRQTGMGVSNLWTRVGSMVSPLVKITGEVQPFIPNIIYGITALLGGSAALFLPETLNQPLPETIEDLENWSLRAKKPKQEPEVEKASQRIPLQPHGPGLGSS", "test": "In vitro transporter inhibition", "assay_type": "in vitro ADME", "source_text": "as §1"}, "OAT1": {"target": "OAT1 (Homo sapiens, UniProt Q4U2R8)", "sequence (Q4U2R8 whole entry)": "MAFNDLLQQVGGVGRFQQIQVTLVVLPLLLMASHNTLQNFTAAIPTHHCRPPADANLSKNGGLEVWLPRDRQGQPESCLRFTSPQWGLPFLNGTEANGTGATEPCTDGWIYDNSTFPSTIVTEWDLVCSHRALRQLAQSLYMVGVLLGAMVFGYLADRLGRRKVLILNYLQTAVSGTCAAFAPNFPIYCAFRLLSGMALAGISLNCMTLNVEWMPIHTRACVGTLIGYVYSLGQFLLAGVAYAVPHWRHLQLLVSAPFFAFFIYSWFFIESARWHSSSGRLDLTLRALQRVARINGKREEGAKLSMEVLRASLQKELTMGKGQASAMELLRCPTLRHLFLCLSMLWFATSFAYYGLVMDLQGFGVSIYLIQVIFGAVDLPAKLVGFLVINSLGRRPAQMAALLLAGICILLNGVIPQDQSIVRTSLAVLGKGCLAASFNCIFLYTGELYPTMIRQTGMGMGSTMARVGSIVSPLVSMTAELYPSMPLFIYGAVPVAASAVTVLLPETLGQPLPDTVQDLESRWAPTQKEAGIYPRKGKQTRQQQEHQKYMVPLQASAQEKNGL", "test": "In vitro transporter inhibition", "assay_type": "in vitro ADME", "conditions": "at clinically relevant concentrations", "source_text": "as §1"}, "rats [1]": {"test_system": "rats", "test": "Second fertility study, rats, lower doses (0, 5, 15, or 25 mg/kg/day)", "assay_type": "in vivo, rat"}, "CYP3A4 [2]": {"target": "T1, CYP3A4 (Homo sapiens, UniProt P08684)", "T1 sequence (P08684 whole entry)": "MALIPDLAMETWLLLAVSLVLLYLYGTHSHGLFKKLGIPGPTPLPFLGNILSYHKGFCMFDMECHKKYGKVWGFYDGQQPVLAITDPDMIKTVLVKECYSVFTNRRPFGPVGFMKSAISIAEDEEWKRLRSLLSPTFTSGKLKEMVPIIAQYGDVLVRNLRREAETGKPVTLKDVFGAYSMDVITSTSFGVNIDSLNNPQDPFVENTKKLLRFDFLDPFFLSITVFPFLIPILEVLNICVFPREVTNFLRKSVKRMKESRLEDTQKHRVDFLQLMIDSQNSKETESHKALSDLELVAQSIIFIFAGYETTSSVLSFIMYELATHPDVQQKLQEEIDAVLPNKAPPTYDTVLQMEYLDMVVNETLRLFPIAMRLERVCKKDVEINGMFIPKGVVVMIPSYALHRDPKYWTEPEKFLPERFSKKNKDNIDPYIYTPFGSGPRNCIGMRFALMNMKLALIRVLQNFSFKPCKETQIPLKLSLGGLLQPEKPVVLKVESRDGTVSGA", "test": "Expected interactions with moderate or weak CYP3A4 inhibitors and inducers", "assay_type": "in vivo", "set-up": "endogenous in cells; host or cells: in vivo, endogenous enzyme of the study subjects", "description": "The concomitant administration of rimegepant with a moderate inhibitor of CYP3A4 may increase rimegepant exposures (AUC) by less than 2-fold [see Drug Interactions].\nNo dedicated drug interaction study was conducted to assess the effect of concomitant administration of a moderate or weak inducer of CYP3A4 on the pharmacokinetics of rimegepant."}, "CYP1A2": {"test_system": "CYP1A2", "test": "In vitro enzyme induction", "assay_type": "in vitro ADME", "conditions": "at clinically relevant concentrations", "source_text": "(§2) Rimegepant is a substrate of CYP3A4 and CYP2C9 [see In Vivo Studies]."}, "CYP2B6": {"test_system": "CYP2B6", "test": "In vitro enzyme induction", "assay_type": "in vitro ADME", "conditions": "at clinically relevant concentrations", "source_text": "as §2"}, "CYP3A4 [3]": {"test_system": "CYP3A4", "test": "In vitro enzyme induction", "assay_type": "in vitro ADME", "conditions": "at clinically relevant concentrations", "source_text": "as §2"}, "Plasma protein binding": {"test": "Plasma protein binding", "assay_type": "in vitro ADME", "source_text": "(§3) The steady state volume of distribution of rimegepant is 120 L. Plasma protein binding of rimegepant is approximately 96%."}, "CYP3A4 and CYP2C9": {"test_system": "CYP3A4 and CYP2C9", "test": "Dedicated drug interaction study with fluconazole (combined moderate CYP3A4 and CYP2C9 inhibitor)", "assay_type": "in vivo, human", "conditions": "75 mg single dose with fluconazole"}, "[4]": {"test_system": "Chinese hamster ovary cells", "test": "Chromosomal aberration assay (in vitro)", "assay_type": "cell-based", "source_text": "(§4) Rimegepant was negative in in vitro (bacterial reverse-mutation, chromosomal aberration in Chinese hamster ovary cells) and in vivo (rat micronucleus) assays."}, "CYP3A4 [5]": {"target": "T1, CYP3A4", "test": "In vitro enzyme study: substrate / metabolism", "assay_type": "in vitro ADME", "source_text": "as §2"}, "CYP2C9 [6]": {"target": "CYP2C9 (Homo sapiens, UniProt P11712)", "sequence (P11712 whole entry)": "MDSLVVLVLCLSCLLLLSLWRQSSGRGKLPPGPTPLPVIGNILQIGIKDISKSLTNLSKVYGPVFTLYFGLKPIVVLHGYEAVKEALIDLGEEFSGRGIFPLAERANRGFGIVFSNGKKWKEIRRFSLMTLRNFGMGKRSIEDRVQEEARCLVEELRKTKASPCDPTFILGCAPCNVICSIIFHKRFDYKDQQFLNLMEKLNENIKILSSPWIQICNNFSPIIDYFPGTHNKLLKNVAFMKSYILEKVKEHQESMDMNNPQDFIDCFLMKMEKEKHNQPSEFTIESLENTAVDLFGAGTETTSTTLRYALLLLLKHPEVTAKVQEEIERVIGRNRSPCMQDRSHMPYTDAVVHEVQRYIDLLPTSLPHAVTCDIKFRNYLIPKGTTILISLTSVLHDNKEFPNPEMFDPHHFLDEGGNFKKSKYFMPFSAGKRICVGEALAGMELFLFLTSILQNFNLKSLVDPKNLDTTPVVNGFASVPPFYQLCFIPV", "test": "In vitro enzyme study: substrate / metabolism", "assay_type": "in vitro ADME", "conditions": "listed as Rimegepant", "source_text": "as §2"}, "CYP2C9 [7]": {"test_system": "CYP2C9", "test": "Pharmacogenomics: pharmacokinetics by CYP2C9 genotype", "assay_type": "in vivo, human", "conditions": "CYP2C9 intermediate metabolizers (n=43) compared to normal metabolizers (N=72)", "source_text": "CYP2C9 activity is reduced in individuals with genetic variants such as the CYP2C9*2 and CYP2C9*3 alleles. Rimegepant Cmax and AUC0-inf were similar in CYP2C9 intermediate metabolizers (i.e., *1/*2, *2/*2, *1/*3, n=43) as compared to normal metabolizers (i.e., *1/*1, N=72). Adequate PK data are not available from CYP2C9 poor metabolizers (i.e., *2/*3)."}, "[8]": {"test": "Dedicated clinical study, pharmacokinetics in hepatic impairment", "assay_type": "in vivo, human", "description": "In a dedicated clinical study comparing the pharmacokinetics of rimegepant in subjects with mild, moderate, and severe hepatic impairment to that with normal subjects (healthy matched control), the exposure of rimegepant (Cmax and AUC) following a single 75 mg dose was approximately 2-fold higher in subjects with severe impairment (Child-Pugh class C)."}, "[9]": {"test": "Pharmacokinetics in other specific populations", "assay_type": "in vivo, human", "conditions": "based on age, sex, race/ethnicity, body weight, or CYP2C9 genotype"}, "clinical": {"test": "clinical", "conditions": "human, in vivo", "description": "Following oral administration of NURTEC ODT, rimegepant is absorbed with the maximum concentration at 1.5 hours.\nas §3\nFollowing oral administration of [^14C]-rimegepant to healthy male subjects, 78% of the total radioactivity was recovered in feces and 24% in urine. Unchanged rimegepant is the major single component in excreted feces (42%) and urine (51%)."}, "[10]": {"test_system": "bacterial reverse-mutation", "test": "Bacterial reverse-mutation assay (in vitro)", "assay_type": "cell-based", "source_text": "as §4"}, "[11]": {"test": "Dedicated clinical study, pharmacokinetics in renal impairment", "assay_type": "in vivo, human", "description": "In a dedicated clinical study comparing the pharmacokinetics of rimegepant in subjects with mild (estimated creatinine clearance [CLcr] 60-89 mL/min), moderate (CLcr 30-59 mL/min), and severe (CLcr 15-29 mL/min) renal impairment to that with normal subjects (healthy matched control), the exposure of rimegepant following single 75 mg dose was approximately 40% higher in subjects with moderate renal impairment. […] NURTEC ODT has not been studied in patients with end-stage renal disease (CLcr<15 mL/min) [see Use in Specific Populations]."}, "male and female rats": {"test_system": "male and female rats", "test": "Fertility study, oral, male and female rats (0, 30, 60, or 150 mg/kg/day)", "assay_type": "in vivo, rat"}, "rats [12]": {"test_system": "rats", "test": "Carcinogenesis study, oral, 91-100 weeks, rats", "assay_type": "in vivo, rat"}, "MATE2-K": {"target": "MATE2-K (Homo sapiens, UniProt Q86VL8)", "sequence (Q86VL8 1-566 isoform Q86VL8-3)": "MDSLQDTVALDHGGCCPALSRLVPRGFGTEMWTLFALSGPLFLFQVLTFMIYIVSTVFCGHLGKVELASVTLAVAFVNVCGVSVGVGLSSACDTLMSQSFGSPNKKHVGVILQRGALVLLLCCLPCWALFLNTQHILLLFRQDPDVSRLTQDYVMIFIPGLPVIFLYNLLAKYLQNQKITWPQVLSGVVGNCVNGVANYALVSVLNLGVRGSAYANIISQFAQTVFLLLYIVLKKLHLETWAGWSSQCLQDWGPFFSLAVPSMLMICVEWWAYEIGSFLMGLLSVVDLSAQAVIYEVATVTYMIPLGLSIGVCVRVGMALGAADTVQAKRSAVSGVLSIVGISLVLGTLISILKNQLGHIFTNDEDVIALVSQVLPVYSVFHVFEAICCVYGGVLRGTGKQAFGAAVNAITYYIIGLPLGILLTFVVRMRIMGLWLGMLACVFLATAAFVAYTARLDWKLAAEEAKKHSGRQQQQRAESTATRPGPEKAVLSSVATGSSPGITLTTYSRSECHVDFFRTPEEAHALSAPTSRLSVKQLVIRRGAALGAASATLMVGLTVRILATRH", "test": "In vitro transporter inhibition", "assay_type": "in vitro ADME", "conditions": "at clinically relevant concentrations"}, "[13]": {"test": "Pharmacokinetic interactions with other drugs (oral contraceptives, midazolam, sumatriptan)", "assay_type": "in vivo, human", "conditions": "with oral contraceptives (norelgestromin, ethinyl estradiol), midazolam, or sumatriptan"}, "[14]": {"test": "Cardiac electrophysiology (QT interval)", "assay_type": "in vivo, human", "conditions": "single dose 4 times the recommended dose"}, "rat micronucleus": {"test_system": "rat micronucleus", "test": "Rat micronucleus assay (in vivo)", "source_text": "as §4"}}, "note": "“Also recorded” adds a separate entry of the source. Like-named read-outs stand apart in the source and are kept apart here."}
{"smiles": "N[C@@H]1c2cccnc2[C@H](OC(=O)N2CCC(n3c(=O)[nH]c4ncccc43)CC2)CC[C@H]1c1cccc(F)c1F", "note": "[rimegepant, (5S,6S,9R)-5-amino-6-(2,3-difluorophenyl)-6,7,8,9-tetrahydro-5H-cyclohepta[b]pyridin-9-yl 4-(2-oxo-2,3-dihydro-1H-imidazo[4,5-b]pyridin-1-yl)-1-piperidinecarboxylate]", "values": [{"measurement": "inhibition of OATP1B3", "setting": "OATP1B3", "value": "inhibitor"}, {"measurement": "inhibition of OAT3", "setting": "OAT3", "value": "weak inhibitor"}, {"measurement": "inhibition of OAT1", "setting": "OAT1", "value": "not an inhibitor"}, {"measurement": "effects on fertility, uterine histopathology, early embryonic development", "setting": "rats [1]; 0, 5, 15, or 25 mg/kg/day", "value": "no adverse effects on fertility, uterine histopathology, or early embryonic development"}, {"measurement": "plasma drug exposures (AUC) relative to humans at the MRHD", "setting": "rats [1]; at the no-effect dose (25 mg/kg/day)", "value": "approximately 15 times"}, {"measurement": "no-effect dose for impairment of fertility and early embryonic development", "setting": "rats [1]; rats", "value": 25, "unit": "mg/kg/day"}, {"measurement": "increase of rimegepant exposures (AUC)", "setting": "CYP3A4 [2]; with a moderate inhibitor of CYP3A4, stated as 'may increase'", "value": "less than 2 fold"}, {"measurement": "impact on rimegepant exposures", "setting": "CYP3A4 [2]; with a weak inhibitor of CYP3A4, no dedicated study conducted", "value": "not expected to have a clinically significant impact"}, {"measurement": "effect on rimegepant exposure", "setting": "CYP3A4 [2]; with moderate inducers of CYP3A4, no dedicated study conducted", "value": "significant reduction in rimegepant exposure"}, {"measurement": "induction of CYP1A2", "setting": "CYP1A2", "value": "not an inducer"}, {"measurement": "induction of CYP2B6", "setting": "CYP2B6", "value": "not an inducer"}, {"measurement": "induction of CYP3A4", "setting": "CYP3A4 [3]", "value": "not an inducer"}, {"measurement": "fraction unbound", "setting": "Plasma protein binding", "value": "~0.04"}, {"measurement": "effect on rimegepant Cmax", "setting": "CYP3A4 and CYP2C9", "value": "no relevant effect"}, {"measurement": "increase of rimegepant AUC", "setting": "CYP3A4 and CYP2C9", "value": 1.8, "unit": "fold"}, {"measurement": "mutagenesis, chromosomal aberration", "setting": "[4]", "value": "negative"}, {"measurement": "substrate of / metabolized by CYP3A4", "setting": "CYP3A4 [5]", "value": "moderately sensitive substrate"}, {"measurement": "substrate of / metabolized by CYP3A4", "setting": "CYP3A4 [5]; listed as Rimegepant", "value": "primarily metabolized; also recorded: substrate"}, {"measurement": "substrate of / metabolized by CYP2C9", "setting": "CYP2C9 [6]", "value": "substrate"}, {"measurement": "Cmax and AUC0-inf", "setting": "CYP2C9 [7]", "value": "similar"}, {"measurement": "difference in exposure vs normal hepatic function", "setting": "[8]; mild (Child-Pugh class A) and moderate (Child-Pugh class B) hepatic impairment", "value": "no clinically meaningful differences"}, {"measurement": "exposure (Cmax and AUC) higher than in normal subjects", "setting": "[8]; single 75 mg dose, severe hepatic impairment (Child-Pugh class C)", "value": "approximately 2 fold"}, {"measurement": "differences in pharmacokinetics", "setting": "[9]", "value": "No clinically significant differences"}, {"measurement": "eliminated in unchanged form", "setting": "clinical", "value": "~77 % of the dose"}, {"measurement": "half-life", "setting": "clinical", "value": "~11", "unit": "h"}, {"measurement": "major metabolites (i.e., >10%) in plasma", "setting": "clinical", "value": "no major metabolites"}, {"measurement": "bioavailability", "setting": "clinical; po", "value": "~64", "unit": "%"}, {"measurement": "mutagenesis, bacterial reverse-mutation", "setting": "[10]", "value": "negative"}, {"measurement": "difference in exposure vs normal renal function", "setting": "[11]; severe renal impairment (CLcr 15-29 mL/min)", "value": "no clinically meaningful difference"}, {"measurement": "exposure higher than in normal subjects", "setting": "[11]; single 75 mg dose, moderate renal impairment (CLcr 30-59 mL/min)", "value": "approximately 40%"}, {"measurement": "fertility", "setting": "male and female rats; highest dose tested (150 mg/kg/day)", "value": "reduced fertility at the highest dose tested"}, {"measurement": "uterine histopathology", "setting": "male and female rats; oral 30, 60, or 150 mg/kg/day, prior to and during mating, females to GD 7", "value": "uterine atrophy at all doses"}, {"measurement": "plasma exposure (AUC) relative to humans at the MRHD of 75 mg/day", "setting": "rats [12]; highest dose tested (45 mg/kg/day)", "value": "approximately 30 times"}, {"measurement": "drug-induced tumors", "setting": "rats [12]; oral 0, 5, 20, or 45 mg/kg/day for 91-100 weeks", "value": "no evidence of drug-induced tumors"}, {"measurement": "inhibition of MATE2-K", "setting": "MATE2-K", "value": "not an inhibitor"}, {"measurement": "pharmacokinetic interactions", "setting": "[13]", "value": "No significant pharmacokinetic interactions"}, {"measurement": "QT interval prolongation", "setting": "[14]", "value": "does not prolong the QT interval to any clinically relevant extent"}, {"measurement": "mutagenesis, rat micronucleus", "setting": "rat micronucleus", "value": "negative"}]}
